Results reported in ChEMBL document CHEMBL3259781 (J Med Chem, 2014).
Converted amounts (≈) assume the structure as drawn.

Experiments:
Adenosine receptor A3 [1] = target: T1, Adenosine receptor A3 (Homo sapiens, UniProt P0DMS8)
T1 sequence (P0DMS8 whole entry): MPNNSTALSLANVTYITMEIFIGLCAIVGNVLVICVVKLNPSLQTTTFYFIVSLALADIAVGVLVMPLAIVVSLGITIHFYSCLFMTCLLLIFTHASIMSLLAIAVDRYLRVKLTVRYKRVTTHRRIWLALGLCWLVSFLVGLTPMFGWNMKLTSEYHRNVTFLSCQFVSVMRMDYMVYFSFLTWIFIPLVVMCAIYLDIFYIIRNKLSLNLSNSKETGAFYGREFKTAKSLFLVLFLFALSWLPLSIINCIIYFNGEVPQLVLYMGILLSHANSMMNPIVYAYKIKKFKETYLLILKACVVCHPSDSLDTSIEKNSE

[2] = target: Adenosine receptor A2a (Rattus norvegicus) (UniProt P30543); test: Receptor occupancy at adenosine receptor A2a in rat striatum; assay type: tissue-based
Chain of Adenosine receptor A2a (Rattus norvegicus) (P30543 whole entry): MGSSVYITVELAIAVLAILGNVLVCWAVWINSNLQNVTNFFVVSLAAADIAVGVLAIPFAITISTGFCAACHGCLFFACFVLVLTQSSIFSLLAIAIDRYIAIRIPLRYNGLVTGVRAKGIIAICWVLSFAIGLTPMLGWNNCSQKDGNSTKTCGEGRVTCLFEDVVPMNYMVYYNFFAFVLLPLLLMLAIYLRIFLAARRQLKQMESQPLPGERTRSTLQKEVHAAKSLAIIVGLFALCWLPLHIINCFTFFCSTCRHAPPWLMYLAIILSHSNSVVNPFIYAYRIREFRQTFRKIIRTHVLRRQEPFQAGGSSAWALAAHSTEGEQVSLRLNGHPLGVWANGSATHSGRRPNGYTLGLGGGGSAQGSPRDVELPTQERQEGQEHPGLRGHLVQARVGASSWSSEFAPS

Rattus norvegicus [3] = organism: Rattus norvegicus; test: Anticataleptic activity in rat assessed as minimum efficacious dose; assay type: functional; settings: read-out: MED
Homo sapiens = organism: Homo sapiens; test: Selectivity ratio of Ki for human recombinant adenosine A1 receptor to Ki for human recombinant adenosine receptor A2a
[4] = Oral bioavailability in rat; assay type: ADME, organism-based; settings: in vivo
[5] = Solubility of the compound in water pH 7.4; assay type: physicochemical
Adenosine receptor A1 [6] = target: T2, Adenosine receptor A1 (Homo sapiens, UniProt P30542)
T2 sequence (P30542 whole entry): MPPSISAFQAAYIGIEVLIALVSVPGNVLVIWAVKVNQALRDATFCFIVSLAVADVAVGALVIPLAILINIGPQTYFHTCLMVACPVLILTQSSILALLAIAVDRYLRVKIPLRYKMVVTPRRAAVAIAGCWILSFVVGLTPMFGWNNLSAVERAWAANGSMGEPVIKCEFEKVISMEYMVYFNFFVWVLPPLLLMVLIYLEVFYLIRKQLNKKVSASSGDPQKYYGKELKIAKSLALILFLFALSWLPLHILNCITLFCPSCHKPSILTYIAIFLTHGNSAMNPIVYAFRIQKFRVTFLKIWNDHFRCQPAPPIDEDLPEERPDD

Rattus norvegicus [7] = test: Anticataleptic activity in po dosed rat assessed as inhibition of haloperidol-induced catalepsy; assay type: functional
Adenosine receptor A2b [8] = target: T3, Adenosine receptor A2b (Homo sapiens, UniProt P29275)
T3 sequence (P29275 whole entry): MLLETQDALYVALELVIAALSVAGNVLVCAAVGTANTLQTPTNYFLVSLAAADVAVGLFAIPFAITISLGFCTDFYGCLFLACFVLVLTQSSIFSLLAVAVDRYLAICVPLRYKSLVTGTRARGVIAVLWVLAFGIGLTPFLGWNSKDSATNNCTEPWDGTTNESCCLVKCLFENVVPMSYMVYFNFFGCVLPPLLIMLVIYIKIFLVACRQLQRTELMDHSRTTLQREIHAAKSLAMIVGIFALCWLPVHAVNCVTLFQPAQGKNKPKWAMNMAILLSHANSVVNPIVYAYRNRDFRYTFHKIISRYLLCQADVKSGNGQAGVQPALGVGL

Adenosine receptor A1 [9] = target: T2, Adenosine receptor A1; remark: listed apart in the source
Rattus norvegicus [10] = test: Anticataleptic activity in rat assessed as inhibition at 1 mg/kg, po after 1 hr; assay type: functional; settings: Rattus norvegicus, po, 1 h
Rattus norvegicus [11] = test: Anticataleptic activity in rat assessed as inhibition at 1 mg/kg, po after 4 hrs; assay type: functional; settings: Rattus norvegicus, po, 4 h
Adenosine receptor A2b [12] = target: T3, Adenosine receptor A2b; remark: listed apart in the source
Mus musculus [13] = test: Anticataleptic activity in po dosed mouse assessed as inhibition of haloperidol-induced catalepsy; assay type: functional
[14] = target: T4, Adenosine receptor A1 (Homo sapiens) (UniProt P30542); test: Inhibition of human recombinant adenosine A1 receptor at 10 uM
T4 sequence (whole entry): T2 sequence (P30542 whole entry)

Mus musculus [15] = test: Anticataleptic activity in mouse assessed as inhibition of CGS21680-induced catalepsy at 10 mg/kg, po; assay type: functional
Adenosine receptor A2a [16] = target: T5, Adenosine receptor A2a (Homo sapiens, UniProt P29274); test: Inhibition of human recombinant adenosine receptor A2a at 100 nM
T5 sequence (P29274 whole entry): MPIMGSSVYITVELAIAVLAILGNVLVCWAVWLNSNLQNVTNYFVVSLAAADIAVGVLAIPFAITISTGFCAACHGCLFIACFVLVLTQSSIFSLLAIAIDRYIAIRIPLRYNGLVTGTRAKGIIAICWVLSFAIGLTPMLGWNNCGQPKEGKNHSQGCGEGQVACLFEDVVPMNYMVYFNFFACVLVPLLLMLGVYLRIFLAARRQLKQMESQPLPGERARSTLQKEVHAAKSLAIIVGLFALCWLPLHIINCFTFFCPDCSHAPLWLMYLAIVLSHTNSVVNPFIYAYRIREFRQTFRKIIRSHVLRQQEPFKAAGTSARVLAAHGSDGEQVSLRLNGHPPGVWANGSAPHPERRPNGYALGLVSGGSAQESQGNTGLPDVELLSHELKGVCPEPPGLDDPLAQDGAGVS

Adenosine receptor A2a [17] = target: T5, Adenosine receptor A2a; test: Inhibition of human recombinant adenosine receptor A2a at 10 nM
[18] = target: T6, Adenosine receptor A2b (Homo sapiens) (UniProt P29275); test: Inhibition of human recombinant adenosine receptor A2b at 10 uM
T6 sequence (whole entry): T3 sequence (P29275 whole entry)

[19] = target: T6, Adenosine receptor A2b (Homo sapiens); test: Inhibition of human recombinant adenosine receptor A2b at 1 uM
[20] = target: T4, Adenosine receptor A1 (Homo sapiens); test: Inhibition of human recombinant adenosine A1 receptor at 1 uM
Rattus norvegicus [21] = test: Induction of hypolocomotion in po dosed rat assessed as reduction in motor deficts; assay type: functional
[22] = Plasma clearance in rat; assay type: ADME, organism-based
[23] = Half life in rat; assay type: ADME, organism-based; settings: in vivo
Rattus norvegicus [24] = test: Anticataleptic activity in rat assessed as inhibition at 3 mg/kg, po after 1 hr; assay type: functional
Adenosine receptor A2a [25] = target: T5, Adenosine receptor A2a
Adenosine receptor A3 [26] = target: T1, Adenosine receptor A3; test: Binding affinity to human recombinant adenosine A3 receptor
Adenosine receptor A1 [27] = target: T7, Adenosine receptor A1 (Rattus norvegicus, UniProt P25099); test: Binding affinity to rat recombinant adenosine A1 receptor
T7 sequence (P25099 whole entry): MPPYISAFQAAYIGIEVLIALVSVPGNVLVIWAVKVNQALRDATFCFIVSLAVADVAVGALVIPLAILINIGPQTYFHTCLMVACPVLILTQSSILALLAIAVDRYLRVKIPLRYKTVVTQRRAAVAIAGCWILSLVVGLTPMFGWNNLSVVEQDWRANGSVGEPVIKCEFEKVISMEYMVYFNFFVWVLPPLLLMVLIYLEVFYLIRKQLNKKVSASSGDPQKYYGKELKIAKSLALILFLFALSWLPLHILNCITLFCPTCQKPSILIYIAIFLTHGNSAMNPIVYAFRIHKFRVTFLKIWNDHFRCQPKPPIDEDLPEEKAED

Adenosine receptor A2a [28] = target: T5, Adenosine receptor A2a; remark: listed apart in the source
Rattus norvegicus [29] = organism: Rattus norvegicus; test: Selectivity ratio of Ki for rat striatal adenosine A1 receptor to Ki for rat recombinant adenosine receptor A2a
Adenosine receptor A1 [30] = target: T7, Adenosine receptor A1

CC(C)n1cc(-c2ncc(N)nc2-c2ccc(F)cc2)ccc1=O
Ki (Adenosine receptor A3 [1]): > 557 nM
Activity [2]: 85%
minimal effective dose (Rattus norvegicus [3]): 0.1 mg/kg

COCc1cccc(CNC(=O)c2cc(-c3ccco3)nc(N)n2)n1
Ratio Ki (Homo sapiens): 25
bioavailability [4]: 90%
solubility [5]: > 450 µM

Cc1cc(C)n(-c2cc(NC(=O)COc3cccc(CN(C)C)c3)nc(-c3ccc(C)o3)n2)n1
Ki (Adenosine receptor A1 [6]): 40 nM
ED50 (Rattus norvegicus [7]): 10 mg/kg

CCn1c(=O)c2c(nc(/C=C/c3ccc(OC)c(OC)c3)n2C)n(CC)c1=O [ISTRADEFYLLINE]
Ki (Adenosine receptor A3 [1]): > 3000 nM

Nc1nc(OCCc2ccc(Cl)cc2)nc2c1ncn2[C@@H]1O[C@H](CO)[C@@H](O)[C@H]1O [SONEDENOSON]
EC50 (Adenosine receptor A2b [8]): 10000 nM
Ki (Adenosine receptor A1 [9]): 10000 nM

CN(CCN1CCN(c2ccc(F)cc2F)CC1)c1cc2nc(-c3cccc(C#N)c3)nn2c(N)n1
Ratio Ki (Homo sapiens): 620
Ki (Adenosine receptor A1 [6]): 1120 nM

CN(C)CCn1ncc2c1nc(N)n1c(=O)n(Cc3cccc(Cl)c3)nc21
Ratio Ki (Homo sapiens): 269
Ki (Adenosine receptor A1 [6]): 1400 nM

COCCOc1ccc(N2CCN(CCn3cnc4c3nc(N)n3nc(-c5ccco5)nc43)CC2)cc1
inhibition in vivo at 1 mg/kg (Rattus norvegicus [10]): 55%
inhibition in vivo at 1 mg/kg (Rattus norvegicus [11]): 50%
Ratio Ki (Homo sapiens): 669
Ki (Adenosine receptor A1 [6]): 602 nM

O[C@H](c1cc(C(F)(F)F)nc2c(C(F)(F)F)cccc12)[C@@H]1CCCCN1 [(R,S)-MEFLOQUINE]
Ki (Adenosine receptor A2b [12]): 7070 nM

Nc1nc(-c2ccccc2)c2c(n1)-c1cc(CN3CCCC3)ccc1C2=O
ED50 (Rattus norvegicus [7]): 0.5 mg/kg

CC(O)CCc1nc(N)c2nc(-n3nccn3)n(C)c2n1 (centres undefined)
Ratio Ki (Homo sapiens): 3
Ki (Adenosine receptor A1 [6]): 24 nM

CC(C)c1nc(-c2nccs2)c2sccc2n1
Ratio Ki (Homo sapiens): 148
bioavailability [4]: 5.8%

Nc1nc(-c2ccccc2)c2c(n1)-c1cc(NCCN3CCOCC3)ccc1C2=O
ED50 (Mus musculus [13]): < 0.1 mg/kg

COc1ccc(-c2ccccc2)c2cc(C(=O)N3CCOCC3)oc12
inhibition [14]: 82%
inhibition in vivo at 10 mg/kg (Mus musculus [15]): 78%
inhibition (Adenosine receptor A2a [16]): 81%
inhibition (Adenosine receptor A2a [17]): 39%
inhibition [18]: 98%
inhibition [19]: 81%
inhibition [20]: 37%

CCNC(=O)[C@H]1O[C@@H](n2cnc3c(N)nc(NCCc4ccc(CCC(=O)NCCN)cc4)nc32)[C@H](O)[C@@H]1O
ID90 (Rattus norvegicus [21]): 3.4 mg/kg
ED50 (Rattus norvegicus [21]; Rattus norvegicus, po, read-out: ID50 (the source's name)): 0.5 mg/kg

Nc1nc(-c2ccco2)c2c(n1)-c1ccccc1C2=O
ED50 (Mus musculus [13]): 5 mg/kg

Cc1cnc2c(c1)CN(CCn1ncc3c1nc(N)n1nc(-c4ccco4)nc31)CC2
inhibition in vivo at 1 mg/kg (Rattus norvegicus [10]): 65%
clearance [22]: 4.7 mL/min/kg
half-life [23]: 11.3 h
inhibition in vivo at 3 mg/kg (Rattus norvegicus [24]): 80%
Ki (Adenosine receptor A1 [6]): 358 nM
solubility [5]: 100 µM (≈ 41.5 µg/mL)

O=C(Nc1ccc(F)cc1)Nc1ccc(Nc2nc(-c3ccccc3)nc3c2nnn3Cc2ccccc2)cc1
Ki (Adenosine receptor A2a [25]): 167 nM
Ki (Adenosine receptor A3 [26]): 92 nM
Ki (Adenosine receptor A1 [27]): 107 nM

Nc1nc(-c2ccco2)c2ncn(C(=O)NCc3ccco3)c2n1
Ki (Adenosine receptor A2b [12]): 141 nM
Ki (Adenosine receptor A3 [1]): 1930 nM
Ki (Adenosine receptor A2a [28]): 1.7 nM

Nc1nc2c(cnn2CCN2CCOCC2)c2nn(Cc3cccc(Cl)c3)c(=O)n12
Ratio Ki (Homo sapiens): 99
Ki (Adenosine receptor A1 [6]): 1400 nM

Cc1cc(Cn2nnc3c(-c4ccco4)nc(N)nc32)ccc1N [VIPADENANT]
minimal effective dose (Rattus norvegicus [3]): 0.1 mg/kg

Nc1nc(NC[C@H]2CCCN2Cc2ccnc(Cl)c2)nc2nc(-c3ccco3)nn12
Ratio Ki (Rattus norvegicus [29]): 63
Ki (Adenosine receptor A1 [30]): > 250 nM

Nc1nnc(-c2ccccc2)c(-c2ccccc2)n1
Ki (Adenosine receptor A1 [6]): 270 nM
